Holding throughout (type): in vivo
In one assay the test system is Tetranychus cinnabarinus. The assay can be described thus: Greenhouse acaricidal activity on adult acarids of Tetranychus cinnabarinus (spraying of Phaseolus vulgaris seedlings). To be noted: dose 1.25 mg/L, after 72 h, read-out: mortality against adult acarids of Tetranychus cinnabarinus. The method, then:
According to the solubility of the compounds to be tested, the compounds to be tested were dissolved in acetone or dimethyl sulfoxide and prepared into 50 mL of solutions to be tested at desired concentrations with a 0.1% Tween 80 solution, where the content of the acetone or dimethyl sulfoxide in the solutions was not higher than 10%.
Two true leaves of Phaseolus vulgaris seedlings were taken, and 30-40 adult acarids of Tetranychus cinnabarinus were inoculated. After the cardinal number was investigated, the whole plants were subjected to spraying treatment with a hand-held sprayer, each treatment was repeated for 3 times, and the plants were placed in a standard observation room after the treatment. The number of surviving acarids was investigated after 72 h, and the mortality was calculated.

For another assay, the system named is Ctenocephalides felis. Description: Insecticidal test on Ctenocephalides felis (compound film in culture dish). To be noted: 1 μg/cm^2; adult Ctenocephalides felis; after 72 h; 25° C.; read-out: insect mortality (Ctenocephalides felis). The protocol:
4 mg of compounds to be tested were dissolved in 40 mL of acetone to obtain acetone solutions with a concentration of 100 mg/L. Bottom surfaces and side surfaces of culture dishes with an inner diameter of 5.3 cm were coated with 400 μL of the drug solutions, and when the acetone was volatilized, films of the compounds of the present disclosure were prepared on inner walls of the culture dishes. The inner walls of the culture dishes used were 40 cm^2, and a dose of the treatment drugs was 1 μg/cm^2. 10 adult Ctenocephalides felis (males and females were mixed) were placed in the culture dishes, and the culture dishes were covered and then stored in a constant-temperature room at 25° C. The number of dead insects was checked after 72 h, and the insect mortality was calculated. The test was repeated for 3 times. Test results: The insect mortality of compounds 1, 2, 3, 4, 5, 11, 12, 18, 32, 33, 34, 46, 60, 74, 88, 99, 101, 102, 104, 105, 108, 109, 110, 111, 113 and 114 is 70% or above.

For another assay, the system named is Plutella xylostella. The assay can be described thus: Activity determination of killing Plutella xylostella (Airbrush spray, cabbage leaf discs). To be noted: foliar, 3rd day after administration. The protocol: (§1) The compounds to be tested were dissolved in a mixed solvent of acetone/methanol (1:1) and then diluted to desired concentrations with water containing 0.1% (wt) Tween 80.
(§2) With Mythimna separata and Plutella xylostella as targets, the activity was determined by Airbrush spray method.
Determination method: Cabbage leaves were punched into leaf discs with the diameter of 2 cm by a puncher, the pressure of Airbrush spray treatment is 10 psi (about 0.7 kg/cm^2), and the compounds to be tested were sprayed onto the front and back surfaces of each leaf disc at a liquid amount of 0.5 mL. After drying in the shade, 10 3rd instar larvae were inoculated to each treatment, and each treatment was repeated for 3 times. After the treatment, the larvae were placed in an observation room for culture at 25° C. with relative humidity of 60-70%. On 3rd day after administration, the number of surviving larvae was investigated, and the mortality was calculated.
Some compounds of the present disclosure and control compounds were selected to carry out parallel comparative experiments of the insecticidal activity against Plutella xylostella (on 3rd day after administration), and the determination method was the same as above.

The subject of a further assay is Mythimna separata. Description: Activity determination of killing Mythimna separata (Airbrush spray, corn leaf segments). The conditions noted are these: foliar, dose 1.25 mg/L, 3rd instar larvae, 3rd day after administration, read-out: mortality against Mythimna separata. The protocol: as §1, §2
Determination method: Corn leaves were cut into leaf segments with the length of 2 cm, the pressure of Airbrush spray treatment is 10 psi (about 0.7 kg/cm^2), and the compounds to be tested were sprayed onto the front and back surfaces of each leaf segment at a liquid amount of 0.5 mL. After drying in the shade, 10 3rd instar larvae were inoculated to each treatment, and each treatment was repeated for 3 times. After the treatment, the larvae were placed in an observation room for culture at 25° C. with relative humidity of 60-70%. On the 3rd day after administration, the number of surviving larvae was investigated, and the mortality was calculated.

In another assay the test system is Dermacentor variabilis. Description: Insecticidal test on Dermacentor variabilis (compound film in culture dish). The conditions noted are these: 1 μg/cm^2, 1st nymphs, after 24 h, 25° C., read-out: insect mortality (Dermacentor variabilis). The method, then:
4 mg of compounds to be tested were dissolved in 40 mL of acetone to obtain acetone solutions with a concentration of 100 mg/L. Bottom surfaces and side surfaces of 2 culture dishes with an inner diameter of 5.3 cm were coated with 400 μL of the drug solutions, and when the acetone was volatilized, films of the compounds of the present disclosure were prepared on inner walls of the culture dishes. The inner walls of the culture dishes used were 40 cm^2, and a dose of the treatment drugs was 1 μg/cm^2. 10 1st nymphs of Dermacentor variabilis (males and females were mixed) were placed in the culture dishes. The 2 culture dishes were combined, sealed with tape at a junction portion to prevent escape of the nymphs, and then stored in a constant-temperature room at 25° C. The number of dead insects was checked after 24 h, and the insect mortality was calculated. The test was repeated for 3 times. Test results: The insect mortality of compounds 1, 2, 3, 4, 5, 11, 12, 18, 32, 33, 34, 46, 60, 74, 88, 99, 101, 102, 104, 105, 108, 109, 110, 111, 113 and 114 is 70% or above.

Like-named read-outs stand apart in the source and are kept apart here. Some results are limits rather than exact numbers.

With `N#CCCN(C(=O)c1cc(-c2cnn(-c3c(Cl)cc(C(F)(C(F)(F)F)C(F)(F)F)cc3Cl)c2)cnc1Cl)C1(C#N)CC1` [Compound 12], the mortality at 1.25 µg/mL in the assay on Tetranychus cinnabarinus was at least 90%; in the assay with Plutella xylostella (1.25 mg/L, parallel comparative experiment, read-out: Mortality (%, on 3rd day after administration) 1.25 mg/L), 100%; in the assay with Plutella xylostella (dose 1.25 mg/L, 3rd instar larvae, read-out: mortality against Plutella xylostella), at least 90%; in the assay with Mythimna separata, at least 90%. Besides, the mortality at 1 µg/cm2 with Ctenocephalides felis and with Dermacentor variabilis was at least 70% in each case. For the same compound, in the assay with Plutella xylostella (0.3125 mg/L, parallel comparative experiment, read-out: Mortality (%, on 3rd day after administration) 0.3125 mg/L), the mortality at 0.3125 µg/mL is 100%. Further, in the assay with Plutella xylostella (0.625 mg/L, parallel comparative experiment, read-out: Mortality (%, on 3rd day after administration) 0.625 mg/L), the mortality at 0.625 µg/mL is 100%.

Values taken from patent US20250084058A1, “PHENYLPYRAZOLE COMPOUND AND APPLICATION THEREOF” (priority 2022, published 2025).
